Data reported in patent US20230248759A1, “ORAL RINSE COMPOSITIONS FOR ALLEVIATING XEROSTOMIA COMPRISING POLYETHYLENE GLYCOL DERIVATIVES” (SunBio Inc., priority 2021, published 2023).

Tested on: cultured cells (L-929)
Assay: Cytotoxicity test, liquid sample (dilution type), ISO 10993
Assay type: cell-based
Conditions: L-929, liquid test, 0.025 g/ml in media for test material
Description: The cytotoxicity test is a test to confirm the safety of the composition according to the present invention, and the presence and degree of a cytotoxic reaction in cultured cells (L-929) was evaluated. A good laboratory practice (GLP) institution was commissioned to perform the test according to each test method presented in ISO 10993.
5-2. Test Method of Liquid Sample: A liquid test solution was prepared in which a dilution solution (2× E-MEM+10% FBS) and the liquid test material were combined/diluted in a 1:1 ratio. The culture medium of cell L-929 was removed from the plate well, replaced with 1 mL of test solution and control medium (diluent), and then the cells were cultured. During culturing, microscopic examinations were carried out every 24, 48, 72±4 hours to evaluate cytotoxicity. Cadmium chloride (100 uM CdCl2) as a positive control and E-MEM+5% FBS as a negative control were also used in the test.
As the evaluation criteria of the cytotoxicity test, a score of 0 to 4 was recorded by evaluating the morphological change of cells and the degree of change in viable cells according to lysis or separation. Scores 3 and 4 were judged to be cytotoxic, and scores of 1 and 2 were judged to be non-cytotoxic.

[Cl][Cd][Cl] [Positive Control, Cadmium chloride]
0/0/0: Cytotoxicity Score 24 hr (24 hr) | Cytotoxicity Score 48 hr (48 hr) | Cytotoxicity Score 72 hr (72 hr)
